Key:
[1] = system: subjects with acute coronary syndrome; details: phase III trial; cited from earlier work
[2] = system: Balb/c mice; experiment: Skin safety of daily topical cream on shaved backs of mice; format: in vivo
Text: Wild type Balb/c mice of 6-8 weeks of age were used to determine the safety and efficacy of application of a cream containing an inhibitor of the Erk pathway. Animal studies were approved by the Albany Medical Center Institutional Review Board. The fur of the back was removed with an application of Nair. Three days later, three marks were made on the backs of the mice and treated with a cream containing trametinib (an Erk pathway inhibitor), vehicle cream (without an active ingredient) or nothing daily for five days. One hour after the last application, the spots were treated with one cream or the other, and cutaneous inflammation was induced via exposure to 1-Fluoro-2,4-dinitrobenzene (hereafter DNFB). Six hours later mice were euthanized and the skin spots were processed for histological analysis.
More specifically, to determine whether a cream containing an inhibitor of the Erk activation pathway would effectively penetrate the skin and protect it from an external injury, four mice were treated once a day for five consecutive days on a shaved back with a cream containing 0.1 mg/ml trametinib and cream without drug as described in FIG. 4. Regions labeled ‘U’ were left untreated and represent the baseline normal skin. […] Regions labeled ‘T’ were treated with a cream containing trametinib as the active ingredient. […]

Cc1c(F)cc(C(=O)NC2CC2)cc1-c1ccc(C(=O)NCC(C)(C)C)cn1 [Losmapimod]
Efficacy in reducing the incidence of cardiovascular events [1]: did not demonstrate efficacy
Safety profile in trial [1]: good safety profile

CC(=O)Nc1cccc(-n2c(=O)n(C3CC3)c(=O)c3c(Nc4ccc(I)cc4F)n(C)c(=O)c(C)c32)c1 [trametinib, Trametinib]
Skin changes after application of cream (photographs) ([2]; cream containing 0.1 mg/ml trametinib, topical, once a day for five days, shaved back): No skin changes
Acute adverse effect in the skin ([2]; topical cream containing trametinib, five days): does not elicit an acute adverse effect

From US11065252B2, “Treatment of rosacea with P38 and Erk kinase pathway inhibitors” (Albany Medical College, priority 2016, dated 2021)
